Reference: patent publication US20240342186A1, “PYRIDINE DERIVATIVES WITH N-LINKED CYCLIC SUBSTITUENTS AS cGAS INHIBITORS” (Boehringer Ingelheim International GmbH, priority 2021, published 2024)
Where two headings read alike, the source gives them in different places.

Tests used:
[1] = molecular target: cGAS (Homo sapiens (Human), UniProt Q8N884); assay: Human cGAS enzyme assay (hcGAS IC50, in vitro), cGAMP formation by RapidFire MS; format: biochemical; details: biochemical (in vitro) cGAS inhibition;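 note: enzyme activated by 45 bp dsDNA with GTP and ATP (30 µM each), 60 min compound pre-incubation then 90 min reaction, cGAMP relative to cyclic-di-GMP internal standard, 8-point dilutions up to 10 µM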
[2] = test system: cellular cGAS activity in dsDNA-stimulated human whole blood; assay: Human whole blood assay (hWB IC50): IFNα2α production after dsDNA transfection; format: cell-based; details: inhibition of IFN induction in dsDNA-stimulated human whole blood
Procedure: 6.3 Method: Human Whole Blood Assay (Human WB IC50)
For the detection of cellular cGAS activity human whole blood was stimulated by transfection with double stranded DNA. Pathway activity was monitored by measuring the IFNα2α production.
Compounds were delivered as 10 mM DMSO solution and serially diluted and transferred to the 96-well cell culture plate (Corning #3595), prefilled with 20 μl OptiMEM (Gibco, #11058-021) in each well, using an Echo acoustic dispenser. Typically, 8 concentrations were used with the highest concentration at 10 µM in the final assay volume followed by ˜1:5 dilution steps. DMSO concentration was set to 0.1% in the final assay volume. The 96-well assay plate contained 10 test compounds, and DMSO in control wells.
Collection of human whole blood from 3 or more healthy donors (male or female, no medication for 7 days except contraceptive and thyroxine) as Na-Citrate blood (e.g. 3.8% in Monovettes from Sarstedt) was conducted in parallel. Whole blood was kept at room temperature for a maximum of 3 hours after collection until use in the assay.
160 μl of the whole blood samples was transferred to each well of the 96-well assay plates filled with compound/OptiMEM. All assay plates were prepared as duplicates with blood from different donors. Blood plates were kept at room temperature for 60 minutes and continuous shaking with 450 rpm, covered with the lid, but not sealed.
20 μl OptiMEM and 9.6:1 Fugene was added to all low control wells.
After covering assay plates with aera seals and the lid, blood plates were kept at room temperature for 30 minutes and continuous shaking with 450 rpm, followed by an overnight incubation of 22 h at 37° C. in the incubator, without shaking.
For the detection of IFNα-2α in human plasma, the biotinylated capture antibody (Antibody set IFNA2, Meso Scale Diagnostics #B21VH-3, including coating and capture antibody) was diluted 1:17.5 in Diluent 100 (Meso Scale Diagnostics #R^50AA-4), according to the manufacturer's directions. U-Plex MSD GOLD 96-well Small Spot Strepavidin SECTOR Plates (Meso Scale Diagnostics #L45SA-5) were coated with 25 μl diluted capture antibody. Coated plates were incubated for 60 min at room temperature under continuous shaking at 700 rpm. MSD IFNα-2α plates were washed three times with 150 μl wash buffer (1x HBSS, 0.05% Tween).
After blocking the plates with 100 μl block solution/well (1x HBSS with 0.2% Tween, 2% BSA) for 60 min at room temperature and continuous shaking at 700 rpm, plates were emptied as dry as possible by dumping just before continuing with the human plasma.
Whole Blood assay plates were centrifuged at 1600 rpm for 10 minutes. 25 μl of supernatant was transferred with a pipetting robot from each whole blood plate to the corresponding IFNα-2α plate. Plates were sealed with microplate seals and kept at room temperature again under continuous shaking at 700 rpm for two hours.
Next MSD IFNα-2α plates were washed three times with 150 μl wash buffer (1×HBSS, 0.05% Tween), before adding 25 μl MSD SULFO-TAG IFNα-2α Antibody solution (1:100 diluted in Diluent 3 (Meso Scale Diagnostics #R50AP-2) to each well of the plates.
Afterwards plates were sealed with microplate seals and kept at room temperature again under continuous shaking at 700 rpm for two hours. Finally, MSD IFNα-2α plates were washed three times with 150 μl wash buffer (1×HBSS, 0.05% Tween). 150 μl 2× Read buffer was added to each well and plates were immediately measured with the MSD Sector S600 Reader using the vendor barcode.
For data evaluation and calculation, % control calculation of each well was based on the mean of high (DNA stimulated control) and mean of low (unstimulated control) controls by using the following formula:
[counts(sample)−counts(low))/(counts(high)−counts(low))]*100
The IC50 values were calculated using the standard 4 parameter logistic regression formula. Calculation: [y=(a−d)/(1+(x/c)^b)+d], a=low value, d=high value; x=conc M; c=IC50 M; b=slope

[3] = test system: cellular cGAS activity in baculovirus-stimulated THP1-Dual cells (IRF dependent Lucia luciferase reporter); assay: Human cGAS cell assay: inhibition of IFN induction in virus-stimulated THP1 cells (THP1(vir) IC50); format: cell-based; details: Homo sapiens, THP1-Dual
Source text: (§1) 6.2 Method: Human cGAS Cell Assay and cGAMP Stimulated Counter Cell Assay (THP1(vir) IC50 and THP1(cGAMP) IC50)
(§2) THP1-Dual™ cells (InvivoGen #thpd-nfis) expressing IRF dependent Lucia luciferase reporter were used as basis for both assays. For the detection of cellular cGAS activity cells were stimulated by a baculovirus (pFastbac-1, Invitrogen, no coding insert) infection that delivers the cGAS enzyme stimulating double-stranded DNA (measurement of THP1(vir) IC50).
(§3) For the counter assay, cells were stimulated by cGAMP (SigmaAldrich #SML1232) to activate the identical pathway independent and directly downstream of cGAS (measurement of THP1(cGAMP) IC50). Pathway activity was monitored by measuring the Lucia luciferase activity induced by either DNA stimulated cGAS enzyme activity (measurement of THP1(vir) IC50) or by cGAMP directly (measurement of THP1(cGAMP) IC50, counter assay).
(§4) Compounds were delivered in 10 mM DMSO solution, serially diluted and transferred to the 384 well assay plate (Greiner #781201) using an Echo acoustic dispenser. Typically, 8 concentrations were used with the highest concentration at 10 μM in the final assay volume followed by ˜1:5 dilution steps. DMSO concentration was set to 1% in the final assay volume. The 384 well assay plate contained 21 test compounds (column 1-22), and DMSO in column 23 and 24.
(§5) Cells, cultivated according to manufacturer conditions, were harvested by centrifugation at 300 g/10 min and were then resuspended and diluted to 1.66E5 cells/ml in fresh cell culture medium (RPMI 1640 (Gibco #A10491-01), 10% FCS (Gibco #10500), 1× GlutaMax (Gibco #35050-061), 1× Pen/Strep solution (Gibco #15140-122), 100 μg/ml Normocin (InvivoGen #ant-nr), 100 μg/ml Zeocin (InvivoGen #ant-zn), 10 μg/ml Blasticidin S (Life Technologies #A11139-03)). The baculovirus solution was then added 1:200 (have varied according to virus batch) to the cells (measurement of THP1(vir) IC50).
(§6) 30 μL of the cell/virus-mix were added to each well of the compound plate from column 1-23 via MultiDrop Combi dispenser (5000 cells/well). In column 24, 30 μl/5000 cells/well without virus were added as a low control.
(§7) The plates were then incubated for 18 h at 37° C. in a humidified incubator.
(§8) Following that, 15 μl of QuantiLuc detection reagent (InvivoGen #rep-qlcg5) were added to each well using a MultiDrop Combi. Measurement was done immediately after the addition using an EnVision reader (US-luminescence read-mode).
(§9) For data evaluation and calculation, the measurement of the low control was set as 0% control and the measurement of the high control was set as 100% control. The IC50 values were calculated using the standard 4 parameter logistic regression formula. Calculation: [y=(a−d)/(1+(x/c)^b)+d], a=low value, d=high value; x=conc M; c=IC50 M; b=slope

[4] = test system: cGAMP-stimulated THP1-Dual cells (pathway directly downstream of cGAS); assay: cGAMP stimulated counter cell assay: inhibition of IFN induction in cGAMP-stimulated THP1 cells (THP1(cGAMP) IC50); format: cell-based, human; details: for IC50: Homo sapiens, THP1-Dual; for Ratio THP1(cGAMP) IC50 / THP1(vir) IC50: selectivity for cGAS inhibition
Source text: as §1, §2, §3, §4, §5, §6, §7, §8, §9

[5] = inhibition of IFN induction in virus-stimulated THP1 cells, read-out: THP1(vir) IC50
[6] = inhibition of IFN induction in cGAMP-stimulated THP1 cells, read-out: THP1(cGAMP) IC50 (converted)

Chain of cGAS (Q8N884 whole entry): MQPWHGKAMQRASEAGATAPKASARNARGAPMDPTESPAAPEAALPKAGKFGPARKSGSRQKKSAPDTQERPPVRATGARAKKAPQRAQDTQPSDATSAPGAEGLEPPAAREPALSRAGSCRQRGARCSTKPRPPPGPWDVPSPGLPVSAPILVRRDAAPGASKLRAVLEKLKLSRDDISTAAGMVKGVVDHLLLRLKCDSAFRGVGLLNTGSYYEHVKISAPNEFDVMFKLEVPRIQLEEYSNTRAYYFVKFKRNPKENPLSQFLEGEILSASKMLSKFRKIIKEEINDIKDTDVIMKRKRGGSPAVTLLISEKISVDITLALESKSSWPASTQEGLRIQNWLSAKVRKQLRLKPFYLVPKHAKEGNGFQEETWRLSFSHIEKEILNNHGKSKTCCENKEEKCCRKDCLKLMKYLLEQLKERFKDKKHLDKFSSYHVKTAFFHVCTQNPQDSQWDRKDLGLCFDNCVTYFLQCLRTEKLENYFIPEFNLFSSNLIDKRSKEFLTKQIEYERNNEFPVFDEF

SMILES | IC50 [1] [nM] | IC50 [2] [nM] | IC50 [3, 5] [nM] | IC50 [4, 6] [nM] | Ratio THP1(cGAMP) IC50 / THP1(vir) IC50 [4] | IC50 ([3]; read-out: THP1(vir) IC50, inhibition of IFN induction in virus-stimulated THP1 cells) [nM] | IC50 ([4]; read-out: THP1(cGAMP) IC50) [nM]
C#Cc1cnc(O[C@H]2C[C@@H](C(=O)O)N(c3nc(C(F)(F)F)nc4c3oc3ccccc34)C2)c(N2CCCC3(COC3)[C@@H]2C)c1 [Example 1.22] | 5 | 29 | 21 | 7640 | 355 | – | –
C#Cc1cnc(O[C@H]2C[C@@H](C(=O)O)N(c3nc(C(F)(F)F)nc4c3oc3cc(CC)ccc34)C2)c(N2CCOC3(COC3)[C@@H]2C)c1 [Example 2.09] | 6 | 37 | 31 | 5180 | 166 | – | –
C[C@@H]1N(c2cc(Br)cnc2O[C@H]2C[C@@H](C(=O)O)N(c3nc(C(F)(F)F)nc4c3oc3ccccc34)C2)CCOC12CC2 [Example 1.33] | 3 | 252 | 15 | > 10000 | 677 | – | –
C#Cc1cnc(O[C@H]2C[C@@H](C(=O)O)N(c3nc(CF)nc4c3oc3ccccc34)C2)c(N2CCOC3(COC3)[C@@H]2C)c1 [Example 2.04] | 1 | 5 | 3 | 25400 | 8125 | – | –
C#Cc1cnc(O[C@H]2C[C@@H](C(=O)O)N(c3nc(C(F)F)nc4c3oc3ccccc34)C2)c(N2CCOC3(COC3)C2)c1 [Example 1.25] | – | 551 | – | – | >32 | 517 | > 16600

More lines, main results first:

IC50 [1] [nM] | IC50 [2] [nM] | IC50 [3, 5] [nM] | SMILES | IC50 [4, 6] [nM] | Ratio THP1(cGAMP) IC50 / THP1(vir) IC50 [4] | IC50 ([3]; read-out: THP1(vir) IC50, inhibition of IFN induction in virus-stimulated THP1 cells) [nM] | IC50 ([4]; read-out: THP1(cGAMP) IC50) [nM]
11 | 1370 | 48 | C[C@@H]1N(c2cc(-c3cncc(Cl)c3)cnc2O[C@H]2C[C@@H](C(=O)O)N(c3nc(C(F)(F)F)nc4c3oc3ccccc34)C2)CCOC12COC2 [Example 3.26] | 9240 | 193 | – | –
26 | 84 | 15 | C[C@@H]1N(c2cc(-c3cnn(C(F)(F)F)c3)cnc2O[C@H]2C[C@@H](C(=O)O)N(c3nc(C(F)(F)F)nc4c3oc3ccccc34)C2)CCOC12COC2 [Example 3.30] | 12600 | 829 | – | –
13 | 1540 | 306 | CNc1cc(-c2cnc(O[C@H]3C[C@@H](C(=O)O)N(c4nc(C(F)(F)F)nc5c4oc4ccccc45)C3)c(N3CCOC[C@@H]3C)c2)ccn1 [Example 3.02] | 4920 | 16 | – | –
9 | 1990 | 525 | C[C@H]1COCCN1c1cc(-c2cnn(C)c2)cnc1O[C@H]1C[C@@H](C(=O)O)N(c2nc(C(F)(F)F)nc3c2oc2ccccc23)C1 [Example 3.06] | 21400 | 41 | – | –
15 | 38 | 19 | CSc1cc(-c2cnc(O[C@H]3C[C@@H](C(=O)O)N(c4nc(C(F)F)nc5c4oc4ccccc45)C3)c(N3CCOC4(COC4)[C@@H]3C)c2)ccn1 [Example 3.16, (2S,4S)-1-[4-(difluoromethyl)-8-oxa-3,5-diazatricyclo-[7.4.0.0^2.7]trideca-1(9),2(7),3,5,10,12-hexaen-6-yl]-4-({5-[(9S)-9-methyl-2,5-dioxa-8-azaspiro[3.5]nonan-8-yl]-2′-(methylsulfanyl)-[3,4′-bipyridin]-6-yl}oxy)-pyrrolidine-2-carboxylic acid] | 11800 | 629 | – | –
9 | 96 | 19 | COc1cc(-c2cnc(O[C@H]3C[C@@H](C(=O)O)N(c4nc(C(F)(F)F)nc5c4oc4ccccc45)C3)c(N3CCOC4(COC4)[C@@H]3C)c2)c(F)cn1 [Example 3.25] | 9710 | 502 | – | –
3 | 50 | 30 | C[C@@H]1N(c2cc(-c3cn(C)cn3)cnc2O[C@H]2C[C@@H](C(=O)O)N(c3nc(C(F)(F)F)nc4c3oc3ccccc34)C2)CCOC12COC2 [Example 3.20] | 11500 | 383 | – | –
